Values quoted from earlier work in patent publication US20180346488A1, “CYTOTOXIC BENZODIAZEPINE DERIVATIVES AND CONJUGATES THEREOF” (priority 2017, published 2018).

Conditions: Phase I clinical evaluation; cited from earlier work

**Q.** For `C=C1C[C@H]2C=Nc3cc(OCCCOc4cc5c(cc4OC)C(=O)N4CC(=C)C[C@H]4C=N5)c(OC)cc3C(=O)N2C1` [SJG-136], which “DNA damage in circulating lymphocytes” value is on record?
**A.** noted at all doses

**Q.** What about the adverse effects noted of the same compound?
**A.** vascular leak syndrome, peripheral edema, liver toxicity and fatigue

**Q.** And the maximum tolerated dose?
**A.** 45 μg/m^2
